The values that follow are results of earlier work, collected in patent US10590381B2, “Composition for collecting and preserving placental stem cells and methods of using the composition” (Celularity, Inc., priority 2005, dated 2020).

The structures appear in SMILES notation.

The conditions of series [1]: Form E: about 125° C. for about five minutes; Form B: 175° C. for about five minutes.
For series [2] the following is noted: for hygroscopicity: solid polymorphic form; for conversion at higher relative humidities: stressed at higher relative humidities.
The conditions of series [3]: Form A: among anhydrous polymorphs; Form E: in aqueous solvent systems.

For `Nc1cccc2c1CN(C1CCC(=O)NC1=O)C2=O` (centres unmarked) [Form E, 3-(4-amino-1-oxo-1,3 dihydro-isoindol-2-yl)-piperidene-2,6-dione], the conversion upon heating entry in series [1] was “can convert to Form B”.

With `Nc1cccc2c1CN(C1CCC(=O)NC1=O)C2=O` (centres unmarked) [Form B, 3-(4-amino-1-oxo-1,3 dihydro-isoindol-2-yl)-piperidene-2,6-dione], in series [1], the conversion upon heating entry is “can convert to Form F”. Consider `Nc1cccc2c1CN(C1CCC(=O)NC1=O)C2=O` (centres unmarked) [Form A, 3-(4-amino-1-oxo-1,3 dihydro-isoindol-2-yl)-piperidene-2,6-dione], for which, in series [2], the hygroscopicity entry was “weakly or not hygroscopic”. The “relative stability among polymorphs” value in series [3] was “most thermodynamically stable anhydrous polymorph”. For the molecule `Nc1cccc2c1CN(C1CCC(=O)NC1=O)C2=O` (centres unmarked) [Form D, 3-(4-amino-1-oxo-1,3 dihydro-isoindol-2-yl)-piperidene-2,6-dione], in series [2], the hygroscopicity entry is listed as “either weakly or not hygroscopic” and the “conversion at higher relative humidities” value is on record as “will typically convert to Form B”. Consider `Nc1cccc2c1CN(C1CCC(=O)NC1=O)C2=O` (centres unmarked) [Form C, 3-(4-amino-1-oxo-1,3 dihydro-isoindol-2-yl)-piperidene-2,6-dione], for which, in series [2], the hygroscopicity entry is reported as “not hygroscopic below about 85% RH” and the “conversion at higher relative humidities” value is “can convert to Form B at higher relative humidities”.
